pIC50, pKd: −log10 of the molar value.
What was measured:
[1] = target: T1, FLT3 (Homo sapiens, UniProt P36888); assay: RBC HotSpot Kinase Assay, FLT3
T1 sequence (P36888 610-943 limits assumed): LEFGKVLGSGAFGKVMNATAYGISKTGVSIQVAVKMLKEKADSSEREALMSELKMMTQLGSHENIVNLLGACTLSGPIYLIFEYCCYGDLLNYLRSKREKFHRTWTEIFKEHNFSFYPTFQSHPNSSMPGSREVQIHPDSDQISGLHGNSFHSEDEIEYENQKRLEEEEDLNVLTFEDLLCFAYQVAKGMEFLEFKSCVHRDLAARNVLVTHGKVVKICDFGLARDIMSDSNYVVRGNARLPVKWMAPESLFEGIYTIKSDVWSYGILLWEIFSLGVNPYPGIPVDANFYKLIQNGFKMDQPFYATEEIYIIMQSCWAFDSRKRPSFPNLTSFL

[2] = target: T2, FLT3 ITD, F691L (Homo sapiens, UniProt P36888, F691L, form not given); assay: DiscoverX KINOMEscan competition binding, FLT3 ITD, F691L; settings: read-out: FLT3 ITD, F691L Kd
T2 sequence (P36888 1-993 F691L): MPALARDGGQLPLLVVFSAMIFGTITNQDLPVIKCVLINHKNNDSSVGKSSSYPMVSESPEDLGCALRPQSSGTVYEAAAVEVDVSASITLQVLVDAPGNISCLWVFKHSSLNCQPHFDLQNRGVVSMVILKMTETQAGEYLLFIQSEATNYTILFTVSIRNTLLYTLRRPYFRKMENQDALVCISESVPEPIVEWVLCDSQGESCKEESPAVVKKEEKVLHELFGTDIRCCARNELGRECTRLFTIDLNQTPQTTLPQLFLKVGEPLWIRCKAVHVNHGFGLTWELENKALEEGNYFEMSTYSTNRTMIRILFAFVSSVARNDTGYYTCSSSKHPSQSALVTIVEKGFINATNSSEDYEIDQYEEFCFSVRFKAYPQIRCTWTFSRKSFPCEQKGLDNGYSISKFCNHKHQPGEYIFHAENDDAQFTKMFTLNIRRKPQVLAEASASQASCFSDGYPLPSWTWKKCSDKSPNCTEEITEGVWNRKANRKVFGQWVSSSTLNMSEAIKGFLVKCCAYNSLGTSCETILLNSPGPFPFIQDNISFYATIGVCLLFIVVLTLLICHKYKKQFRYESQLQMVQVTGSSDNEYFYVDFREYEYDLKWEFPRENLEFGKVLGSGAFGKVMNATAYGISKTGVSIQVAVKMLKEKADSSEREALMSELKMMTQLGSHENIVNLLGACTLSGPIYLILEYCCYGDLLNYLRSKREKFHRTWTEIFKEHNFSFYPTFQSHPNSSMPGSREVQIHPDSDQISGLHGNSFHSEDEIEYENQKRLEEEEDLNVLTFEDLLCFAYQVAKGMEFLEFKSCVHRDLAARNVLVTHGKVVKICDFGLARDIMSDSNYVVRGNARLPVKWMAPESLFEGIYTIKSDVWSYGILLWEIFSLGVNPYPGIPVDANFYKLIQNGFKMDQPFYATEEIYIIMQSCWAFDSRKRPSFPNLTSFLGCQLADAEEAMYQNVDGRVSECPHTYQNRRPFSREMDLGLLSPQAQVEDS

[3] = target: T3, FLT3 (Homo sapiens, UniProt P36888); assay: DiscoverX KINOMEscan competition binding, FLT3; design: using full-length kinases in the presence of cellular concentrations of ATP in live, uncompromised cells
T3 sequence (P36888 27-993): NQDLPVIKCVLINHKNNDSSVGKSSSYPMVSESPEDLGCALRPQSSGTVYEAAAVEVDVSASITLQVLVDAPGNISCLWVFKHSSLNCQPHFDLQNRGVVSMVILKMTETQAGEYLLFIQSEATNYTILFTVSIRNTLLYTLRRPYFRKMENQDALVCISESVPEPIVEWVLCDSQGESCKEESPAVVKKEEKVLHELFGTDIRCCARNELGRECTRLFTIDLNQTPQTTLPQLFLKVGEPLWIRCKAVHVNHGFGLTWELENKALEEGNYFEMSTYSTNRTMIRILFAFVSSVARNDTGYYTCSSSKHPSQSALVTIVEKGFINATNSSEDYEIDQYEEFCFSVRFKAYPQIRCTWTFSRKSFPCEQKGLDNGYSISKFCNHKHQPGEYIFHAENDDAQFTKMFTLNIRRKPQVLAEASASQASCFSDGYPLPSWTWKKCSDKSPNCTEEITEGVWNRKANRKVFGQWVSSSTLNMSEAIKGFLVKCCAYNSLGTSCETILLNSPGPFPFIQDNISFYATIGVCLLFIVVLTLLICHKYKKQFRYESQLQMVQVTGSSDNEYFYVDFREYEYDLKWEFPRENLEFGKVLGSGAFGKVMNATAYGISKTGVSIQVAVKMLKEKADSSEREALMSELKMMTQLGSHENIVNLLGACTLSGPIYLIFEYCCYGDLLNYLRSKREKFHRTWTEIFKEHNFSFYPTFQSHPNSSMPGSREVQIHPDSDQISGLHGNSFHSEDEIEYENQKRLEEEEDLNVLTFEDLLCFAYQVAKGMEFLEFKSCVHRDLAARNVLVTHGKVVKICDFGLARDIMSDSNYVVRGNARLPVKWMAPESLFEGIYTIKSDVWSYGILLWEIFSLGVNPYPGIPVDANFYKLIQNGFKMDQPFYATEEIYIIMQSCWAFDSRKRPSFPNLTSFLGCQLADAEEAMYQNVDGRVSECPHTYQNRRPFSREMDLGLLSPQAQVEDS

[4] = target: T3, FLT3; assay: Reaction Biology NanoBRET target engagement assay in HEK-293 cells, FLT3
[5] = NanoBRET FLT3 IC50, HEK-293 cells

| pIC50 ([1]; FLT3 IC50) | pKd [2] | pKd [3] | pIC50 [4, 5] | pIC50 ([1]; read-out: FLT3 IC50) | pIC50 [4] | Structure (SMILES) |
| --- | --- | --- | --- | --- | --- | --- |
| > 9.30 | 10.32 | 9.72 | 7.72 |  |  | COc1cc2ncc(-c3cncc(N[C@H]4CNCC[C@@H]4F)n3)n2nc1C1CC1 [Compound 24, 6-(6-cyclopropyl-7-methoxyimidazo[1,2-b]pyridazin-3-yl)-N-((3S,4S)-4-fluoropiperidin-3-yl)pyrazin-2-amine] |
| > 9.30 | 10.11 | 8.74 |  |  | 6.49 | COc1cc2ncc(-c3cncc(N[C@H]4CNC[C@@H]4F)n3)n2nc1C1CC1 [Compound 22, 6-(6-cyclopropyl-7-methoxyimidazo[1,2-b]pyridazin-3-yl)-N-((3S,4S)-4-fluoropyrrolidin-3-yl)pyrazin-2-amine] |
| > 9.30 | 10.07 | 9.59 |  |  |  | COc1cc2ncc(-c3ccnc(N[C@H]4CNC[C@@H]4F)n3)n2nc1C1CC1 [Compound 49, 4-(6-cyclopropyl-7-methoxyimidazo[1,2-b]pyridazin-3-yl)-N-((3S,4S)-4-fluoropyrrolidin-3-yl)pyrimidin-2-amine] |

The next lines start with the compound.

| Structure (SMILES) | pIC50 ([1]; FLT3 IC50) | pKd [2] | pKd [3] | pIC50 [4, 5] | pIC50 ([1]; read-out: FLT3 IC50) | pIC50 [4] |
| --- | --- | --- | --- | --- | --- | --- |
| F[C@H]1CCNC[C@@H]1Nc1cncc(-c2cnc3cc(OC4CC4)ccn23)n1 [Compound 12, 6-(7-cyclopropoxyimidazo[1,2-a]pyridin-3-yl)-N-((3S,4S)-4-fluoropiperidin-3-yl)pyrazin-2-amine] | > 9.30 | 10.34 | 8.72 | 6.75 |  |  |
| CC(O)(c1cn2c(-c3ccnc(N[C@H]4CNCC[C@@H]4F)n3)cnc2cn1)C(F)(F)F (single isomer, unassigned) [Compound 72] |  | 8.74 | 8.28 | 6.00 | > 9.30 |  |
| COc1cc2ncc(-c3ccnc(N[C@@H]4CCCNC4)n3)n2nc1C1CC1 [Compound 50, (R)-4-(6-cyclopropyl-7-methoxyimidazo[1,2-b]pyridazin-3-yl)-N-(piperidin-3-yl)pyrimidin-2-amine] | > 9.30 |  |  |  |  |  |
| COc1cc2ncc(-c3ccnc(N[C@@H]4CCCNC4)n3)n2cc1C(C)(C)O [Compound 44, (R)-2-(7-methoxy-3-(2-(piperidin-3-ylamino)pyrimidin-4-yl)imidazo[1,2-a]pyridin-6-yl)propan-2-ol] | > 9.30 | 10.04 | 9.55 | 7.74 |  |  |
| COc1cc2ncc(-c3ccnc(N[C@H]4CNCC[C@@H]4F)n3)n2nc1C1CC1 [Compound 51, 4-(6-cyclopropyl-7-methoxyimidazo[1,2-b]pyridazin-3-yl)-N-((3S,4S)-4-fluoropiperidin-3-yl)pyrimidin-2-amine] | > 9.30 | 10.10 | 9.66 | 8.05 |  |  |

Reference: patent US20250154144A1 (CHILDREN'S HOSPITAL MEDICAL CENTER, priority 2021, published 2025)
